Test results as given in patent US6916797B2, “α-arylethylpiperazine derivatives as neurokinin antagonists” (UCB, S.A., priority 2000, dated 2005).

Tests used:
NK1 receptors [1] = target: T1, NK1 receptors (Homo sapiens, UniProt P25103); conditions: cited from earlier work
[2] = after oral administration; cited from earlier work
[3] = system: verapamil-sensitive L-type Ca2+ binding site; conditions: cited from earlier work
[4] = in vivo; cited from earlier work
[5] = system: verapamil binding site of the L-type calcium channel; test: Inhibition of [3H]D888 binding to the verapamil binding site of the L-type calcium channel (rat cerebral cortex membranes); conditions: 10 μmol/l of test substance
[6] = system: isolated rat aorta contracted by 100 mM KCl; test: Effect of compound on isolated rat aorta contracted by 100 mM KCl; conditions: 10^−5 M; contraction by 100 mM KCl
Procedure: Rat thoracic aorta depolarized by 100 mM KCl develops a contraction induced by an influx of Ca^2+ into the smooth muscle cell. An inhibition of this contraction could predict a Ca^2+ antagonist activity.
The method was adapted from Polster P. et al., J. Pharmacol. Exp. Ther. (1990), 255, 593: rings of thoracic aorta were prepared from male Wistar rats (250-400 g) and mounted under an optimal resting tension of 2 g in 10 ml organ baths containing modified Krebs' solution (NaCl 112 mM, NaHCO3 25 mM, KCl 5 mM, MgSO4 1.2 mM, CaCl2 2.5 mM, KH2PO4 1 mM and glucose 11.5 mM, pH 7.4). The bathing solution was maintained at a temperature of 37° C. and gassed with 95% O2 and 5% CO2. Isometric contractions were measured with a force transducer connected to an amplifier. A computer system was used to control data acquisition and fluid circulation through electrovalves. Drugs were manually injected into the bath.
Each ring was allowed to equilibrate for 60 min in the modified Krebs' solution. […] After obtaining two reproducible control contractions, a 3rd contraction was induced and the test compound was added to the bathing medium for 2 hours. Only preparation in which the contractions were matched were used. Each tissue received only one concentration of the test compound. Appropriate control experiments were conducted in order to test the effect of the solvant.
To normalize data, the change in tension due to the drug was compared to the change of tension due to the solvant and expressed as percentage of the induced relaxation of the initial contraction. Raw data were processed by a computer system and the pD′2 value was calculated following the method of Van Rossum J. M. et al., Arch. Int. Pharmacodyn. Ther. (1963), 143, 299.

NK1 receptors [7] = target: T1, NK1 receptors; test: Binding of [4,5-3H-Leu10] substance P to human recombinant NK1 receptors expressed in CHO cell membranes; set-up: host or cells: CHO cells; conditions: pIC50 = -log IC50, concentration inhibiting by 50% the specific binding of [4,5-3H] substance P; tested as the free base/salt given in c1

T1 sequence (P25103 whole entry): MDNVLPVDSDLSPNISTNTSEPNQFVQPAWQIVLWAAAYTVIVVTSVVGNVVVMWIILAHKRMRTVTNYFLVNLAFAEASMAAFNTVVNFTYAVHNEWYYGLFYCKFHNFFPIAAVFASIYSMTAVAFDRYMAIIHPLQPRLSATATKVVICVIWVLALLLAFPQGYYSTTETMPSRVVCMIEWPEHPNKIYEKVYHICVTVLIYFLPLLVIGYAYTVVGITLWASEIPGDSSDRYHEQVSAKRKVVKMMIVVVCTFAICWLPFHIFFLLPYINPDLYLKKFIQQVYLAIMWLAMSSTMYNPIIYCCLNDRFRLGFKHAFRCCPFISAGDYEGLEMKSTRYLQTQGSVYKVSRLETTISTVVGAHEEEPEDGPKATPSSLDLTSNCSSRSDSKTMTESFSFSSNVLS

**Q.** For COc1ccccc1CC(=N)N1C[C@@H]2C(=O)CCC(c3ccccc3)(c3ccccc3)[C@@H]2C1 [RP-67,580], which NK1 affinity (NK1 receptors [1]) is on record?
**A.** Its NK1 affinity is “some NK1 affinity”.

**Q.** For COc1ccccc1[C@H](C)C(=O)N1C[C@@H]2[C@H](C1)C(c1ccccc1)(c1ccccc1)CC[C@@]2(O)c1ccccc1OC [RP-100,893], which “activity in clinical trials for the treatment of migraine” value [2] is on record?
**A.** Its value is “no better than placebo activity”.

**Q.** Which “selectivity for NK1 receptors with respect to NK2 and NK3 receptors” value (NK1 receptors [1]) does the source give for COc1ccccc1CN[C@H]1C2CCN(CC2)[C@H]1C(c1ccccc1)c1ccccc1 [CP-96,345] here?
**A.** Its value is “good selectivity”.

**Q.** And the “affinity for / interaction with the verapamil-sensitive L-type Ca2+ binding site” value [3]?
**A.** The value was “significant affinity”.

**Q.** Which “selectivity for NK1 receptors with respect to NK2 and NK3 receptors” value (NK1 receptors [1]) does the source give for COc1ccccc1CN[C@H]1CCCN[C@H]1c1ccccc1 [CP-99,994] here?
**A.** Its value is “good NK1 selectivity”.

**Q.** And the “affinity for / interaction with the verapamil-sensitive L-type Ca2+ binding site” value [3]?
**A.** Its value is “lower interaction”.

**Q.** What about the “outcome of first phase II clinical trials for asthma” value [4] of the same molecule?
**A.** The value was “unsuccessful”.

**Q.** With O=C(O)c1ccc(CN2CCN([C@H](COCc3cc(C(F)(F)F)cc(C(F)(F)F)c3)c3ccccc3)CC2)cc1 [Compound 243] as the molecule, how does the “% inhibition of [3H]D888 binding to the verapamil binding site of the L-type calcium channel” value [5] read?
**A.** Its value is 0 (0: inhibition < 20%).

**Q.** And the “Result: effect of compound on isolated rat aorta contracted by 100 mM KCl” value [6]?
**A.** Its value is “inactive à 10^−5 M”.

**Q.** And the IC50 (NK1 receptors [7])?
**A.** The IC50 was 63.1 nM.
